Patent publication US8937183B2, “Detection of hydrogen peroxide” (Promega Corporation, priority 2011, dated 2015)

What was measured:
[1] = Background reduction of PBI 4472 with background reduction reagent (TCEP); type: biochemical; conditions: 50 μM, 100 mM Tris base pH 10.4, BRR (TCEP) versus untreated, FIG. 4
Method: PBI 4472 (50 μM) was incubated with assay buffer (100 mM Tris base, pH 10.4) for 15 minutes at room temperature. The samples were then either treated with a background reduction reagent (BRR; TCEP) or remained untreated. After a 15 minute incubation at room temperature, luciferin detection reagent with 1 mM D-cysteine (Promega Corporation) was added to the samples and incubated for 20 minutes at room temperature. Luminescence was detected on a Tecan F500 plate reader.

[2] = Generation of bioluminescence from luciferin borates upon treatment with hydrogen peroxide (luciferase light reaction); type: biochemical
Method: In this example, luciferin borates were incubated with hydrogen peroxide, and luciferin generation was measured using a light reaction catalyzed by luciferase. An increase in light output (bioluminescence) as a result of treatment of the luciferin borates with hydrogen peroxide indicates generation of luciferin as a result of the reaction with hydrogen peroxide.
1 M phosphate solutions (either 6.8 g of KH2PO4 (Fisher) or 11.4 g of K2HPO4 (Sigma) were dissolved in Nanopure water to 1 M) were diluted 1:5 with Nanopure water to produce 200 mM phosphate solutions. 200 mM phosphate buffers at pH 6.87, 7.41, 7.73, 8.04, and 9.18 were prepared. 4 mg/ml solutions of PBI 3048, 4013, 4424 and 4425 (FIG. 1) in DMSO (Fluka 41641) were made from solid powder.
Into two 96-well white, solid bottom luminometer plates (Promega Z3291) (labeled “A” and “B”), 50 μl of 200 mM phosphate buffer pH 6.87 was added to wells A1-H2; 50 μl of 200 mM phosphate pH 7.41 was added to wells A3-H4; 50 μl of 200 mM phosphate buffer pH 7.73 was added to wells A5-H6; 50 μl of 200 mM phosphate buffer pH 8.04 was added to wells A7-H8; and 50 μl of 200 mM phosphate buffer pH 9.18 was added to wells A9-H10.
50 μl of 4 mg/ml PBI 4013 in DMSO was diluted to 1.25 ml with Nanopure water, and 25 μl added to wells A1-D10 of plate A. 50 μl of 4 mg/ml PBI 4424 was diluted to 1.25 ml with Nanopure water, and 25 μl added to E1-H10 of plate A. 50 μl of 4 mg/ml PBI 3048 was diluted to 1.25 ml with Nanopure water, and 25 μl added to A1-D10 of plate B. 50 μl of 4 mg/ml PBI 4425 was diluted to 1.25 ml with Nanopure water, and 25 μl added to E1-H10 of plate B. 25 μl of Nanopure water was added to rows A and E of both plates. 17 μl of Nanopure water was added to rows B and F of both plates; and 8 μl of Nanopure water was added to rows C and G of both plates
A hydrogen peroxide solution (30% hydrogen peroxide, Sigma H1009-5 ml) was diluted to 60 μM hydrogen peroxide with Nanopure water, and 25 μl of the 60 μM hydrogen peroxide was added to rows D and H of both plates; 17 μl of […] hydrogen peroxide was added to rows C and G of both plates; and 8 μl of […] hydrogen peroxide was added to rows B and F of both plates. Both plates A and B were then gently mixed for 70 minutes.
A bottle of Reconstitution Buffer with Esterase (Promega V144B) was thawed and used to reconstitute a Luciferin Detection Reagent (Promega V859B) to create a reconstituted Luciferin Detection Reagent (“LDR”). 15 ml of 1 M HEPES buffer, pH 7.5 was mixed with 25 ml of the LDR, and 80 μl added to wells A1-H10 of two new luminometer plates (“R1” and “R2”).
Following incubation, 20 μl of the contents of wells A1-H10 of plate A was transferred to the same wells in plate R1, and 20 μl of A1-H10 of plate B was transferred to the same wells in plate R2. Plate R1 and R2 were then incubated at room temperature for 15 minutes, and bioluminescence was measured with a GloMax® luminometer (Promega Corp).
Bioluminescence from duplicate wells was averaged, and the average relative light units (RLUs) from samples containing peroxide were compared to those from the samples not containing peroxide incubated at the same pH (Table 1).

## CC1(C)OB(c2ccc(COc3ccc4nc(C#N)sc4c3)cc2)OC1(C)C [PBI 4472, 6-((4-(4,4,5,5-tetramethyl-1,3,2-dioxaborolan-2-yl)benzyl)oxy)benzo-[d]thiazole-2-carbonitrile]
[1]
  background luminescence with reduction reagent (in words): can reduce background

## O=C(O)C1CSC(c2nc3ccc(OCc4ccc(B(O)O)cc4)cc3s2)=N1 (stereo not shown) [PBI 3048]
[2]; H2O2 0 μM, phosphate buffer pH 6.87, 70 minutes
  average relative light units (bioluminescence): 392,535 RLU
[2]; H2O2 0 μM, phosphate buffer pH 7.41, 70 minutes
  average relative light units (bioluminescence): 418,478 RLU
[2]; H2O2 0 μM, phosphate buffer pH 7.73, 70 minutes
  average relative light units (bioluminescence): 470,830 RLU
[2]; H2O2 0 μM, phosphate buffer pH 8.04, 70 minutes
  average relative light units (bioluminescence): 561,030 RLU
[2]; H2O2 0 μM, phosphate buffer pH 9.18, 70 minutes
  average relative light units (bioluminescence): 819,156 RLU
[2]; H2O2 5 μM, phosphate buffer pH 6.87, 70 minutes
  average relative light units (bioluminescence): 521,375 RLU
[2]; H2O2 5 μM, phosphate buffer pH 7.41, 70 minutes
  average relative light units (bioluminescence): 794,181 RLU
[2]; H2O2 5 μM, phosphate buffer pH 7.73, 70 minutes
  average relative light units (bioluminescence): 1,200,842 RLU
[2]; H2O2 5 μM, phosphate buffer pH 8.04, 70 minutes
  average relative light units (bioluminescence): 1,831,013 RLU
[2]; H2O2 5 μM, phosphate buffer pH 9.18, 70 minutes
  average relative light units (bioluminescence): 3,834,248 RLU
[2]; H2O2 10 μM, phosphate buffer pH 6.87, 70 minutes
  average relative light units (bioluminescence): 717,216 RLU
[2]; H2O2 10 μM, phosphate buffer pH 7.41, 70 minutes
  average relative light units (bioluminescence): 1,302,514 RLU
[2]; H2O2 10 μM, phosphate buffer pH 7.73, 70 minutes
  average relative light units (bioluminescence): 2,057,780 RLU
[2]; H2O2 10 μM, phosphate buffer pH 8.04, 70 minutes
  average relative light units (bioluminescence): 3,137,287 RLU
[2]; H2O2 10 μM, phosphate buffer pH 9.18, 70 minutes
  average relative light units (bioluminescence): 6,426,397 RLU
[2]; H2O2 15 μM, phosphate buffer pH 6.87, 70 minutes
  average relative light units (bioluminescence): 833,785 RLU
[2]; H2O2 15 μM, phosphate buffer pH 7.41, 70 minutes
  average relative light units (bioluminescence): 1,709,044 RLU
[2]; H2O2 15 μM, phosphate buffer pH 7.73, 70 minutes
  average relative light units (bioluminescence): 2,713,251 RLU
[2]; H2O2 15 μM, phosphate buffer pH 8.04, 70 minutes
  average relative light units (bioluminescence): 4,193,451 RLU
[2]; H2O2 15 μM, phosphate buffer pH 9.18, 70 minutes
  average relative light units (bioluminescence): 7,447,757 RLU
[2]; all pH values 6.87 to 9.18
  light signal increase upon addition of hydrogen peroxide (in words): increased strongly
